According to US20250221943A1, “POLYDOPAMINE CO-POLYMER NANOPARTICLES” (CAMBRIDGE ENTERPRISE LIMITED, priority 2022, published 2025):

What was measured:
[1] = system: AsPC-1; test: Live-cell imaging (IncuCyte) cytotoxicity of SN38 and SN38@F127@PDA; assay type: cell-based, human; details: AsPC-1, live-cell imaging, 72 h treatment
Experimental: (§1) All NPs were tested for cytotoxicity studies in AsPC-1, BxPC-3, MIA-PaCa-2, PANC-1 and ARPE-19. Cells were seeded into 96-well plates at concentration of 2000 cells/well, in 200 μl of complete growth medium and incubated at 37 C, 5% CO2 for 24 h. After overnight incubation, the cells were treated with different concentration of F127@PDA-40, F127@PDA-60 and F127@PDA-100 (0.01-100 μg/mL) dissolved in complete cell media, the same volume of water was added for the negative control. The plates were then inserted into the IncuCyte®S3 Live-Cell Analysis System (Sartorius) for real-time imaging. Treated plates were imaged every 3 h for 72 h under cell culture conditions with 10× objective using the brightfield channel. Mean cell confluence was calculated using the images taken from 3 random fields of view per well using the IncuCyte S3 v2017A software. All Incucyte experiments were performed in triplicate in three independent experiments. Relative confluence values were obtained by normalizing each value to the time zero value in each sample and normalised to the untreated control sample.
(§2) Cells were seeded into 96-well plates at concentration of 2000 cells/well, in 100 μl of complete growth medium and incubated at 37 C, 5% CO2 for 24 h. After overnight incubation, the cells were treated with SN38 and the same concentration of SN38@F127@PDA using various concentrations (0.0001 μM-1 μM). The plates were inserted into the IncuCyte®S3 Live-Cell Analysis System (Sartorius) for real-time imaging. Treated plates were imaged every 3 h for 72 h under cell culture conditions with 10× objective using the brightfield channel. Average cell confluence was calculated as described in the previous section. In addition to live cell imaging after 72 h incubation in the IncuCyte®S3 MTS assay was performed as described in the section above.

[2] = system: BxPC-3; test: as above; assay type: cell-based, human; details: BxPc-3, live-cell imaging, 72 h treatment
Experimental: as §1, §2

[3] = system: MIA PaCa-2; test: as above; assay type: cell-based, human; details: MIA PaCa-2, live-cell imaging, 72 h treatment
Experimental: as §1, §2

[4] = system: PANC-1; test: as above; assay type: cell-based, human; details: PANC-1, live-cell imaging, 72 h treatment
Experimental: as §1, §2

[5] = system: AsPC-1; test: MTS assay cytotoxicity of SN38 and SN38@F127@PDA; assay type: cell-based, human; details: AsPC-1, MTS, 72 h treatment
Experimental: (§3) Additionally, the effect of F127@PDA NPs on the viability of AsPC-1, BxPC-3, MIA PaCa-2, PANC-1 and ARPE-19 using MTS assay (Promega, USA.) Cells were seeded into clear 96-well plates containing 2000 cells/well in 100 μL complete growth medium and cultured for 24 h at 37° C. and 5% CO2. Subsequently, cells were treated with varying concentrations of F127@PDA_40, F127@PDA_60 and F127@PDA_100 (0.01-100 μg/mL) dissolved in complete growth media containing 0.1% water. After further 72 h incubation at 37° C. and 5% CO2, 20 μL of CelTiter 96® AQueous One Solution (Promega, USA) was added into each well and incubated at 37° C., 5% CO2 for 1-4 h, according to the manufacturer's instruction. The absorbance of each well was measured at 490 nm using a Spark plate reader (TECAN, CH). Control measurements included negative control of cells with DMEM, cells with DMEM containing 0.1% water, cell-free culture media (blank) and cell-free sample dilutions in culture media to evaluate potential sample interferences with MTS reagent. All experiments were conducted in biological triplicates. The percentage cell viability was calculated according to the following:
as §2

[6] = system: BxPC-3; test: MTS assay cytotoxicity of SN38 and SN38@F127@PDA; assay type: cell-based, human; details: BxPc-3, MTS, 72 h treatment
Experimental: as §3, §2

[7] = system: MIA PaCa-2; test: MTS assay cytotoxicity of SN38 and SN38@F127@PDA; assay type: cell-based, human; details: MIA PaCa-2, MTS, 72 h treatment
Experimental: as §3, §2

[8] = system: PANC-1; test: MTS assay cytotoxicity of SN38 and SN38@F127@PDA; assay type: cell-based, human; details: PANC-1, MTS, 72 h treatment
Experimental: as §3, §2

[9] = Loading content by UV-Vis; assay type: physicochemical; details: for loading content of the drug in F127@PDA NPs: physical adsorption, conventional method
Experimental: F127@PDA NPs (5 mg) was dissolved in 10 mM Tris buffer (5 mL) and Fluorescein-TEG-NH2 (10 mg, 2 wt eq.) dissolved in 0.5 mL ethanol was added dropwise. The mixture was protected from direct sunlight and stirred over night at room temperature. Excess Fluorescein-TEG-NH2 was removed washing with Milli-Q water using Vivaspin 20 (Satorius, UK) centrifugal concentrators (10 kDa MWCO) for 15 min at 4000 rpm until the supernatant was colourless, followed by 3 days dialysis against water with 12-14 kDa MWCO dialysis bags.
To assess the loading capacity, absorption of SN38 was investigated adapting a method by Wang et al.^[90] A suspension of 10 mg F127@PDA NPs (1 mg/mL) and 2.5 mg SN38 (0.25 wt eq.) in DMSO:H2O=1:10 (10 mL) were sonicated for 30 min, followed by stirring at room temperature for 72 hours. To remove free drug, the reaction mixture was first centrifuged at 2000 rpm for 5 min. The supernatant was collected and washed with Milli-Q water using Vivaspin 20 (Satorius, UK) centrifugal concentrators (10 kDa MWCO) for 15 min at 4000 rpm. The obtained particles were diluted in Milli-Q water, frozen in liquid nitrogen and lyophilised to yield a dark brown powder. The loading content of SN38 within the NPs was determined using UV-Vis. The absorbance of SN38@F127@PDA NPs at 382 nm was deducted by the F127@PDA absorbance and the loading content was calculated according to the following equation: (3).^[98]
F127@PDA NPs (5 mg) was dissolved in 10 mM Tris buffer (5 mL) and the corresponding ligand 4-6 (10 mg, 2 wt eq.) dissolved in 0.5 mL ethanol was added dropwise. The mixture was protected from direct sunlight and stirred over night at room temperature. […]
A suspension of 10 mg F127@PDA NPs (1 mg/mL) and 2.5 mg of the corresponding drug (0.25 wt eq.) in DMSO:H2O=1:10 (10 mL) were sonicated for 30 min, followed by stirring at room temperature for 72 hours. […] The loading content of Gem and PTX within the NPs was determined using UV-Vis. The absorbance of the free drug in the supernatant was measured and the loading content was calculated according to the following equation: […]

For `CCc1c2c(nc3ccc(O)cc13)-c1cc3c(c(=O)n1C2)COC(=O)[C@]3(O)CC` [SN38], the IC50 [1] was 52.9 nM, the IC50 [2] was 8.91 nM and the IC50 [3] was 12.1 nM. It also gave an IC50 [4] of 56.1 nM, an IC50 [5] of 110 nM and an IC50 [6] of 56 nM. For the same molecule, the IC50 [7] was 13.1 nM and the IC50 [8] was 113 nM.
With `Nc1ccn([C@@H]2O[C@H](CO)[C@@H](O)C2(F)F)c(=O)n1` [Gem, Gemcitabine] the “loading content of the drug in F127@PDA NPs” value [9] was 11.5±5.7 % (w/w).
For “TAMRA-CONH—PKKKRKVC—COOH ({TAMRA}-PKKKRKVC-OH) [TAMRA-NLS]”, the “loading content (w/w) of the ligand on functionalized F127@PDA NPs” value ([9]; Michael addition post-functionalization) was 3%.
In the case of `CC(=O)O[C@H]1C(=O)[C@@]2(C)[C@H]([C@H](OC(=O)c3ccccc3)[C@]3(O)C[C@H](OC(=O)[C@H](O)[C@@H](NC(=O)c4ccccc4)c4ccccc4)C(C)=C1C3(C)C)[C@]1(OC(C)=O)CO[C@@H]1C[C@@H]2O` [PTX, Paclitaxel], the “loading content of the drug in F127@PDA NPs” value [9] is reported as 14.3±4.7 % (w/w).
